Measurements taken from a melting point compilation (Tetko et al.; mined from patent text by program, amines drawn as free bases though some values may be those of a salt).

For CCOc1ccc(OCc2ccc(OCc3nc(-c4ccccc4)oc3C)cc2)cc1CCC(=O)O, which melting point is on record?
The melting point was 129 to 130 °C.

Which melting point does the source give for C=COC(=O)n1c(S(=O)Cc2ccc(C)cn2)nc2cscc21 (stereo not given) here?
The melting point was 162 °C.

With O=C(Nc1cccnc1)NC(NC(=O)c1ccccc1)C(Cl)(Cl)Cl (stereo not given) as the compound, how does the melting point read?
The melting point was 214 to 215 °C.

Which melting point does the source give for CC(=O)Nc1cccc2c1Oc1ccccc1C21CCN(C)CC1 here?
The melting point was 176 to 178 °C.

For OCCCCc1ccc(OCc2ccccc2)cc1, which melting point is on record?
The melting point was 59 to 60 °C.

With N#Cc1ccc2sc3c(c2c1)CC(CO)CC3 (stereo not given) as the compound, how does the melting point read?
The melting point was 165 to 166 °C.

Which melting point does the source give for COC(=O)C=C1C(=O)N(C)C(=O)N1C here?
Its melting point is 49.5 °C.

For CCc1ccc2nc(C)c(S(=O)(=O)NC(=O)Nc3nc(OC)cc(OC)n3)n2n1, which melting point is on record?
The melting point was 172 to 174 °C.

Which melting point does the source give for COc1ccc(Sc2nc(-c3ccc(OC)cc3)cnc2N)cc1 here?
The melting point was 149 to 151 °C.

For O=[N+]([O-])C(CN(Cc1ccccc1)Cc1ccccc1)=C1NCCCS1, which melting point is on record?
The melting point was 108 to 110 °C.

Which melting point does the source give for CCN(CCNC(=O)Nc1cc(Cl)ccc1CCc1cc(C(C)(C)C)c(O)c(C(C)(C)C)c1)Cc1ccccc1 here?
Its melting point is 132 to 133 °C.

For Oc1ccc(-c2c3ccccc3c(Br)c3sc4ccccc4c23)cc1O, which melting point is on record?
Its melting point is 181 to 182 °C.

For COCC1CN(c2ccc(OCCCC3(C)OC(COS(=O)(=O)c4ccc(C)cc4)C(COS(=O)(=O)c4ccc(C)cc4)O3)cc2)C(=O)O1 (stereo not given), which melting point is on record?
The melting point was 104 °C.

With Cc1ccc(C2c3c(C)c(N4CCN(c5ccc(C)cc5)CC4)c(C)c(C)c3OC2(C)C)cc1 (stereo not given) as the compound, how does the melting point read?
Its melting point is 157 to 158 °C.

With CNc1ccc(CC(=O)C(=O)O)cc1 as the compound, how does the melting point read?
The melting point was 210 °C.

Which melting point does the source give for CC(=O)N1CCN=C1Nc1cc(C)nn1Cc1ccccc1 here?
The melting point was 148 to 149 °C.

Which melting point does the source give for NC(=O)c1ccc(-c2nn(-c3ccc(C(=O)O)cc3)c3ccc([N+](=O)[O-])cc23)cc1 here?
The melting point was 320 to 322 °C.

For Cn1cc(Oc2cccc(Cl)c2Cl)c(=O)c(-c2cccc(C(F)(F)F)c2)c1, which melting point is on record?
Its melting point is 200 to 202 °C.

With CC(C)CC(C(=O)O)N(C)C(C)C (stereo not given) as the compound, how does the melting point read?
Its melting point is 159 to 160 °C.

With Cc1ccc(N2CCCN(C(=O)OC(C)(C)C)CC2)cc1[N+](=O)[O-] as the compound, how does the melting point read?
The melting point was 103 to 106 °C.

Which melting point does the source give for CCOC(=O)N1CCc2nnc(N(C)N)cc2C1 here?
Its melting point is 121 to 123 °C.

With COC(=O)c1cc(S(C)(=O)=O)c(S(F)(F)(F)(F)F)cc1C as the compound, how does the melting point read?
Its melting point is 127 °C.

Which melting point does the source give for O=C1C(=O)c2ccc(Br)cc2C2=C1SCC1(CCN(C(=O)c3cccc(Cl)c3)CC1)O2 here?
Its melting point is 135 to 140 °C.

For CCCc1c(C(=O)NCc2ccc3cc(OCC(=O)OC)ccc3c2)cnn1-c1ccccc1, which melting point is on record?
Its melting point is 145 to 146 °C.

Which melting point does the source give for CCOC(=O)c1cc(CC)sc1Nc1ccc(N)cc1N here?
Its melting point is 152 to 155 °C.

For COC(=O)CC1OCCN(CCc2c[nH]c3ccc(C)cc23)C1=O (stereo not given), which melting point is on record?
Its melting point is 138 °C.

With O=c1[nH][nH]c(=O)c2c(O)c3c(Cl)c(Cl)c(Cl)cc3nc12 as the compound, how does the melting point read?
Its melting point is 123 to 124 °C.

For COc1c(C)c(C)c(OC)c(CN2C(=O)[C@H]3CCC[C@H]3Nc3ccccc32)c1C (relative stereo), which melting point is on record?
The melting point was 175 to 176 °C.

For Cc1ccc2[nH]c(=O)cc(CCN3CCN(c4cccc5ccccc45)CC3)c2c1, which melting point is on record?
Its melting point is 241 to 242 °C.

For [N-]=[N+]=NCCc1cccc2[nH]cc(S(=O)(=O)c3ccccc3)c12, which melting point is on record?
Its melting point is 143 °C.

With O=[N+]([O-])c1ccc(NC2CC2)cc1 as the compound, how does the melting point read?
The melting point was 126 to 128 °C.

With COc1cccc([C@H]2O[C@H](CC(=O)NCCc3occc3C(=O)O)C(=O)N(CC(C)(C)CO)c3ccc(Cl)cc32)c1OC as the compound, how does the melting point read?
The melting point was 126 to 129 °C.

For CCOC(=O)c1cc(=O)c2c(OCCOc3ccc4c(c3)OCO4)cccc2o1, which melting point is on record?
The melting point was 161 to 162 °C.

With CCCCCCCCCCCCCCOc1cc(OCCCOc2ccc(OCc3ccccc3)cc2)cc(C(=O)OC)c1 as the compound, how does the melting point read?
The melting point was 69 to 70 °C.

With Cc1ccc(S(=O)(=O)c2c(N3CCN(C(=O)c4cccs4)CC3)c3ccccc3n(C)c2=O)cc1 as the compound, how does the melting point read?
The melting point was 213 °C.

Which melting point does the source give for Cc1ccc(-c2nc(NC(=O)c3nnn[nH]3)cs2)cc1 here?
Its melting point is 228 to 230 °C.

With Cc1ccc(C(O)(c2ccc(C)cc2)C2CCN(CCCC(O)c3ccc(C(C)(C)C(=O)O)cc3)CC2)cc1 (stereo not given) as the compound, how does the melting point read?
Its melting point is 208 to 215 °C.

With CCn1c(=O)c2c(nc(/C=C/c3ccc(OCCCCN=[N+]=[N-])cc3)n2C)n(CC)c1=O as the compound, how does the melting point read?
The melting point was 158 to 159 °C.

With CC(C)c1c(C(=O)Nc2ccccc2)c(-c2ccccc2)c(-c2ccc(F)cc2)n1CCCC(O)C(O)CC(=O)N(c1ccccc1)c1ccccc1 (stereo not given) as the compound, how does the melting point read?
Its melting point is 228 to 233 °C.

With CNC(=O)c1cc(C#N)cc(C)c1NC(=O)c1cc(Br)nn1-c1ccccc1Cl as the compound, how does the melting point read?
Its melting point is 242 to 243 °C.

For CCCOc1ccccc1-c1cc(C)c(C#N)c(=O)[nH]1, which melting point is on record?
Its melting point is 180 °C.

With CC1(C)COc2ccc(OC(F)(F)F)cc2C(O)(c2ccccn2)C1 (stereo not given) as the compound, how does the melting point read?
The melting point was 76 °C.

For Cc1nnc(NC(=O)c2sccc2S(=O)(=O)Nc2onc(C)c2Cl)s1, which melting point is on record?
The melting point was 192 to 194 °C.

Which melting point does the source give for CCc1noc(CC(O)c2ccccc2)c1C(=O)NC (stereo not given) here?
The melting point was 135 to 137 °C.

For CN(C)C=C(C(=O)C(C)(C)C)n1ccnc1, which melting point is on record?
Its melting point is 45 to 50 °C.

Which melting point does the source give for OC(CCl)(Cc1c(Cl)cccc1Cl)c1ccc(Cl)cc1Cl (stereo not given) here?
Its melting point is 117 °C.

With CCCc1c(OCCCCCCc2cccc(O)c2O)ccc(C(=O)O)c1OC(C)=O as the compound, how does the melting point read?
Its melting point is 130 to 132 °C.

With O=CC1=C(Cl)c2cccc(Cl)c2CC1 as the compound, how does the melting point read?
The melting point was 83.5 to 84 °C.

With CCOC(=O)C(=O)c1oc2cc(C)ccc2c1O as the compound, how does the melting point read?
Its melting point is 113 to 115 °C.

For Nc1nc(OCCC2CCCCC2)nc2c1ncn2C1OC(CO)C(O)C1O (stereo not given), which melting point is on record?
The melting point was 105 to 112 °C.

With N#CNC(=S)Nc1ccccc1 as the compound, how does the melting point read?
Its melting point is > 250 °C.

Which melting point does the source give for CC(C)(C)c1ccc2cc3cc(C(C)(C)C)ccc3cc2c1 here?
Its melting point is 249 to 253 °C.

For CN1Sc2sccc2C=C1CN1CCOCC1, which melting point is on record?
The melting point was 104 to 106 °C.

Which melting point does the source give for COc1cccc(-c2ccc(NC(=O)OC(C)(C)C)c([N+](=O)[O-])c2)c1 here?
Its melting point is 104 to 107 °C.

Which melting point does the source give for OCc1cc(N2CCOCC2)ncn1 here?
The melting point was 138 °C.

Which melting point does the source give for CN1CC2Cc3cc4c(cc3C(c3ccc([N+](=O)[O-])cc3)=NN2C1=O)OCO4 (stereo not given) here?
The melting point was 252 to 255 °C.

For CC(C)(C)c1ccc(C(=O)CCCCCc2ccccc2)cc1NC(=O)CC1c2ccccc2Oc2ccccc21, which melting point is on record?
Its melting point is 119 to 120 °C.

With CCOC(=O)CC[C@H](NC(=O)c1ccc(N)cc1F)C(=O)OCC as the compound, how does the melting point read?
Its melting point is 130 to 132 °C.

Which melting point does the source give for COCCOCCOCC(=O)Nc1c(I)c(N)c(I)c(C(=O)O)c1I here?
Its melting point is 177 to 178 °C.

For CCCN(CCC)C(C)(C)CC(C)(C)C, which melting point is on record?
The melting point was 43 to 45 °C.

With CN(C)n1nnc2cc3c(cc2c1=O)OC1CCCN1C3=O (stereo not given) as the compound, how does the melting point read?
The melting point was 180 °C.

Which melting point does the source give for O=[N+]([O-])c1ccc(OC(F)(F)c2ccccc2)cc1 here?
Its melting point is 46 to 48 °C.

For CCCc1c(OCCCCCc2c(Cl)c(Cl)cc(OC)c2OC)ccc(C(=O)O)c1O, which melting point is on record?
Its melting point is 152 to 154 °C.

Which melting point does the source give for O=P(O)(O)C1CC(c2ccc(F)cc2)=NO1 (stereo not given) here?
Its melting point is 206 °C.

For Cn1c(-c2ccccc2F)nnc1S(C)(=O)=O, which melting point is on record?
The melting point was 128 to 130 °C.

With Cn1ncc(/C=C/C(=O)Nc2ccc(Cc3nc4c(s3)CCCC4)cc2)c1-c1ccc(F)cc1 as the compound, how does the melting point read?
The melting point was 205 to 206 °C.

For CC(C)C1C(=O)Nc2ccc(O)cc21 (stereo not given), which melting point is on record?
Its melting point is 175 °C.

Which melting point does the source give for Cc1c(C(C)(C)C(=O)O)nc2ccc(NCCCN3CCC(OC(c4ccccc4)c4ccccc4)CC3)nn12 here?
Its melting point is 219 to 220 °C.

For Nc1nc(-c2ccccc2)nc2cccc(Oc3ccccc3)c12, which melting point is on record?
Its melting point is 190 to 191 °C.

For CCCC(=O)Nc1ccc(C2=NNC(=O)NC2C)cc1 (stereo not given), which melting point is on record?
The melting point was 232 to 234 °C.
